Experimental data taken from the NIST ThermoML archive (doi:10.1007/s10765-013-1469-0).
± gives the expanded uncertainty stated by the source.

What was measured:
[1] = refractive index (Na D-line) (dimensionless); conditions: 101.33 kPa, Liquid, Standard Abbe refractometry
[2] = 101 kPa, Liquid; for viscosity: Concentric cylinders viscometry; for mass density: Vibrating tube method
[3] = xn = mol fraction of the nth substance listed; conditions: 101 kPa, Liquid, x1 = 1; for viscosity: Concentric cylinders viscometry; for mass density: Vibrating tube method
[4] = refractive index (Na D-line) (dimensionless); xn = mol fraction of the nth substance listed; conditions: 101 kPa, Liquid, Standard Abbe refractometry, x1 = 1

COCCOCCOCCOCCOC [2,5,8,11,14-pentaoxapentadecane]
Conditions	mass density, [2] [kg/m3]	refractive index, [1]	viscosity, [2] [mPa·s]
288.15 K	1015.63 ± 0.1	1.4345 ± 0.00033	4.341 ± 0.04
293.15 K	1011 ± 0.1	1.43238 ± 0.00033	3.834 ± 0.035
298.15 K	1006.36 ± 0.1	1.43027 ± 0.00033	3.38 ± 0.031
303.15 K	1001.73 ± 0.098	1.42815 ± 0.00033	3.004 ± 0.028
308.15 K	997.104 ± 0.098	1.42603 ± 0.00033	2.691 ± 0.025
313.15 K	992.481 ± 0.099	1.42394 ± 0.00033	2.426 ± 0.023
318.15 K	987.859 ± 0.1	1.42183 ± 0.00033	2.199 ± 0.021
323.15 K	983.234 ± 0.1	1.41973 ± 0.00033	2.006 ± 0.019
328.15 K	978.613 ± 0.1	1.41765 ± 0.00033	1.838 ± 0.018
333.15 K	973.989 ± 0.1	1.41553 ± 0.00033	1.691 ± 0.016

CCCCO [butan-1-ol]
Conditions	mass density, [2] [kg/m3]	refractive index, [1]	viscosity, [2] [mPa·s]
288.15 K	813.407 ± 0.14	1.40131 ± 0.00033	3.356 ± 0.031
293.15 K	809.621 ± 0.14	1.39932 ± 0.00033	2.965 ± 0.028
298.15 K	805.804 ± 0.15	1.39729 ± 0.00033	2.593 ± 0.024
303.15 K	801.964 ± 0.15	1.39529 ± 0.00033	2.277 ± 0.022
308.15 K	798.091 ± 0.15	1.39317 ± 0.00033	2.008 ± 0.019
313.15 K	794.181 ± 0.15	1.39104 ± 0.00033	1.78 ± 0.017
318.15 K	790.229 ± 0.15	1.38893 ± 0.00033	1.583 ± 0.015
323.15 K	786.228 ± 0.15	1.38683 ± 0.00033	1.412 ± 0.014
328.15 K	782.172 ± 0.15	1.38474 ± 0.00033	1.264 ± 0.013
333.15 K	778.056 ± 0.15	1.38237 ± 0.00033	1.132 ± 0.012

CCCCO [butan-1-ol] + COCCOCCOCCOCCOC
Conditions	mass density, [3] [kg/m3]	refractive index, [4]	viscosity, [3] [mPa·s]
288.15 K	813.407 ± 0.14	1.40131 ± 0.00033	3.356 ± 0.031
293.15 K	809.621 ± 0.14	1.39932 ± 0.00033	2.965 ± 0.028
298.15 K	805.804 ± 0.15	1.39729 ± 0.00033	2.593 ± 0.024
303.15 K	801.964 ± 0.15	1.39529 ± 0.00033	2.277 ± 0.022
308.15 K	798.091 ± 0.15	1.39317 ± 0.00033	2.008 ± 0.019
313.15 K	794.181 ± 0.15	1.39104 ± 0.00033	1.78 ± 0.017
318.15 K	790.229 ± 0.15	1.38893 ± 0.00033	1.583 ± 0.015
323.15 K	786.228 ± 0.15	1.38683 ± 0.00033	1.412 ± 0.014
328.15 K	782.172 ± 0.15	1.38474 ± 0.00033	1.264 ± 0.013
333.15 K	778.056 ± 0.15	1.38237 ± 0.00033	1.132 ± 0.012
